# Structures can show the parent of a compound that is named as a salt.
# Tests used:
# [1] = Stability in buffer at pH 7.4 (HPLC); type: physicochemical; conditions: buffer pH 7.4, 37° C.
# Experimental: 0.3 mg of the test compound are solved in 0.1 ml dimethylsulfoxide and 0.4 ml acetonitrile. For complete dissolution the HPLC vial with the sample solution is sonified for about 20 seconds. Then 1.0 ml of the buffer solution is added, and the sample is again treated in the ultrasonic bath.
# 90 g of sodium chloride, 13.61 g of potassium dihydrogen phosphate and 83.35 g of 1 M sodium hydroxide solution are made up to 1 liter with Millipore water and then diluted 1:10.
# 10 μl portions of the sample solution are analysed by HPLC to determine the amount of the test compound over a period of 24 hours at 37° C. The peak areas in percentage are used for quantification.
# Agilent 1100 with DAD (G1315B), binary pump (G1312A), autosampler (G1329A), column oven (G1316A), thermostat (G1330B); column: Kromasil 100 C18, 250 mm×4 mm, 5 μm; column temperature: 37° C.; eluent A: water+5 ml of perchloric acid/liter, eluent B: acetonitrile.
# The ratio of the peak areas (F) at different time points in relation to the peak areas at the starting time are shown in Table 2 for representative examples: […]
# [2] = In vitro stability in rat plasma (HPLC detection); type: in vitro ADME; conditions: 37° C.
# Experimental: 1 mg of test compound is dissolved in 1.25 ml dimethylsulfoxide. Then 1.25 ml water are added. 0.5 ml of this sample solution are mixed with 0.5 ml heparinized and 37° C. warm plasma (wistar rat plasma or human plasma). A first sample (10 μl) is immediately taken for HPLC analysis. In the period up to 4 h after the start of incubation further 10 μl aliquots are taken after 30, 60, 90, 120 and 240 minutes and the amount of the test compound is determined.
# Agilent 1100 with DAD (G1315A), binary pump (G1312A), autosampler (G1329A), column oven (G1316A), thermostat (G1330B); column: Kromasil 100 C18, 250 mm×4 mm, 5 μm; column temperature: 45° C.; eluent A: water+5 ml of perchloric acid/liter, eluent B: acetonitrile.
smiles,measurement,setting,value
"COc1cc(S(C)(=O)=O)ccc1N(C(=O)OC(C)OC(=O)[C@@H](N)C(C)(C)C)c1nc2ccc(-c3ccc(NC(=O)[C@H](C)c4ccc(F)cc4)cc3)cn2n1.Cl (single isomer, unassigned) [Example 3.3, (1R or 1S)-1-({[6-(4-{[(2R)-2-(4-fluorophenyl)propanoyl]amino}phenyl)[1,2,4]triazolo[1,5-α]pyridin-2-yl][2-methoxy-4-(methylsulfonyl)phenyl]carbamoyl}oxy)ethyl-3-methyl-L-valinate hydrochloride]",% Test Compound after 24 h [F(t = 24 h) × 100/F(t = 0 h)],[1],0.0%
same,% Test Compound after 4 h [F(t = 24 h) × 100/F(t = 0 h)],[2]; hydrochloride,22%
"COc1cc(S(C)(=O)=O)ccc1N(C(=O)OC(C)OC(=O)[C@@H](N)C(C)(C)C)c1nc2ccc(-c3ccc(NC(=O)[C@H](C)c4ccc(F)cc4)cc3)cn2n1.Cl (single isomer, unassigned) [Example 3.4, (1S or 1R)-1-({[6-(4-{[(2R)-2-(4-fluorophenyl)propanoyl]amino}phenyl)[1,2,4]triazolo[1,5-α]pyridin-2-yl][2-methoxy-4-(methylsulfonyl)phenyl]carbamoyl}oxy)ethyl-3-methyl-L-valinate hydrochloride]",% Test Compound after 24 h [F(t = 24 h) × 100/F(t = 0 h)],[1],0.0%
same,% Test Compound after 4 h [F(t = 24 h) × 100/F(t = 0 h)],[2]; hydrochloride,29%
"COc1cc(S(C)(=O)=O)ccc1N(C(=O)OC(OC(=O)[C@@H](N)C(C)C)C(C)C)c1nc2ccc(-c3ccc(NC(=O)[C@H](C)c4ccc(F)cc4)cc3)cn2n1 (single isomer, unassigned) [Example 5.2, (1R or S)-1-({[6-(4-{[(2R)-2-(4-fluorophenyl)propanoyl]amino}phenyl)[1,2,4]triazolo[1,5-α]pyridin-2-yl][2-methoxy-4-(methylsulfonyl)phenyl]carbamoyl}oxy)-2-methylpropyl-L-valinate hydrochloride]",% Test Compound after 24 h [F(t = 24 h) × 100/F(t = 0 h)],[1],48%
same,% Test Compound after 4 h [F(t = 24 h) × 100/F(t = 0 h)],[2],44%
"COc1cc(S(C)(=O)=O)ccc1N(C(=O)OCOC(=O)[C@@H](N)C(C)C)c1nc2ccc(-c3ccc(NC(=O)[C@H](C)c4ccc(F)cc4)cc3)cn2n1 [Example 1.2, ({[6-(4-{[(2R)-2-(4-fluorophenyl)propanoyl]amino}phenyl)[1,2,4]triazolo[1,5-α]pyridin-2-yl][2-methoxy-4-(methylsulfonyl)phenyl]carbamoyl}oxy)methyl L-valinate hydrochloride]",% Test Compound after 24 h [F(t = 24 h) × 100/F(t = 0 h)],[1],0.0%
same,% Test Compound after 4 h [F(t = 24 h) × 100/F(t = 0 h)],[2],0.0%
"CN[C@H](C(=O)OCOC(=O)N(c1nc2ccc(-c3ccc(NC(=O)[C@H](C)c4ccc(F)cc4)cc3)cn2n1)c1ccc(S(C)(=O)=O)cc1OC)C(C)C.Cl [Example 1.4, ({[6-(4-{[(2R)-2-(4-fluorophenyl)propanoyl]amino}phenyl)[1,2,4]triazolo[1,5-α]pyridin-2-yl][2-methoxy-4-(methylsulfonyl)phenyl]carbamoyl}oxy)methyl N-methyl-L-valinate hydrochloride]",% Test Compound after 24 h [F(t = 24 h) × 100/F(t = 0 h)],[1],0.0%
same,% Test Compound after 4 h [F(t = 24 h) × 100/F(t = 0 h)],[2],14%
"COc1cc(S(C)(=O)=O)ccc1N(C(=O)OCOC(=O)[C@@H](N)C(C)(C)C)c1nc2ccc(-c3ccc(NC(=O)[C@H](C)c4ccc(F)cc4)cc3)cn2n1.Cl [Example 1.5, ({[6-(4-{[(2R)-2-(4-fluorophenyl)propanoyl]amino}phenyl)[1,2,4]triazolo[1,5-α]pyridin-2-yl][2-methoxy-4-(methylsulfonyl)phenyl]carbamoyl}oxy)methyl 3-methyl-L-valinate hydrochloride]",% Test Compound after 24 h [F(t = 24 h) × 100/F(t = 0 h)],[1],0.0%
same,% Test Compound after 4 h [F(t = 24 h) × 100/F(t = 0 h)],[2],0.0%
"COc1cc(S(C)(=O)=O)ccc1N(C(=O)OCOC(=O)C(C)(C)CN)c1nc2ccc(-c3ccc(NC(=O)[C@H](C)c4ccc(F)cc4)cc3)cn2n1.O=C(O)C(F)(F)F [Example 1.8, ({[6-(4-{[(2R)-2-(4-fluorophenyl)propanoyl]amino}phenyl)[1,2,4]triazolo[1,5-α]pyridin-2-yl][2-methoxy-4-(methylsulfonyl)phenyl]carbamoyl}oxy)methyl 3-amino-2,2-dimethylpropanoate trifluoroacetate]",% Test Compound after 24 h [F(t = 24 h) × 100/F(t = 0 h)],[1],0.0%
same,% Test Compound after 4 h [F(t = 24 h) × 100/F(t = 0 h)],[2],3%
"COc1cc(S(C)(=O)=O)ccc1N(C(=O)OCOC(=O)[C@@H](NC(=O)[C@@H](N)CCCCN)C(C)C)c1nc2ccc(-c3ccc(NC(=O)[C@H](C)c4ccc(F)cc4)cc3)cn2n1.Cl.Cl [Example 2.1, ({[6-(4-{[(2R)-2-(4-fluorophenyl)propanoyl]amino}phenyl)[1,2,4]triazolo[1,5-α]pyridin-2-yl][2-methoxy-4-(methylsulfonyl)phenyl]carbamoyl}oxy)methyl L-lysyl-L-valinate dihydrochloride]",% Test Compound after 24 h [F(t = 24 h) × 100/F(t = 0 h)],[1],0.0%
same,% Test Compound after 4 h [F(t = 24 h) × 100/F(t = 0 h)],[2],0.0%
"COc1cc(S(C)(=O)=O)ccc1N(C(=O)OCOC(=O)[C@@H](NC(=O)[C@@H](N)C(C)C)C(C)C)c1nc2ccc(-c3ccc(NC(=O)[C@H](C)c4ccc(F)cc4)cc3)cn2n1 [Example 2.3, ({[6-(4-{[(2R)-2-(4-fluorophenyl)propanoyl]amino}phenyl)[1,2,4]triazolo[1,5-α]pyridin-2-yl][2-methoxy-4-(methylsulfonyl)phenyl]carbamoyl}oxy)methyl L-valyl-L-valinate hydrochloride]",% Test Compound after 24 h [F(t = 24 h) × 100/F(t = 0 h)],[1],16%
same,% Test Compound after 4 h [F(t = 24 h) × 100/F(t = 0 h)],[2],37%
"CNCCCC(=O)N(c1nc2ccc(-c3ccc(NC(=O)[C@H](C)c4ccc(F)cc4)cc3)cn2n1)c1ccc(S(C)(=O)=O)cc1OC.O=C(O)C(F)(F)F [Example 4.1, N-[6-(4-{[(2R)-2-(4-fluorophenyl)propanoyl]amino}phenyl)[1,2,4]triazolo[1,5-α]pyridin-2-yl]-N-[2-methoxy-4-(methylsulfonyl)phenyl]-4-(methylamino)butanamide trifluoroacetate]",% Test Compound after 24 h [F(t = 24 h) × 100/F(t = 0 h)],[1],23%
same,% Test Compound after 4 h [F(t = 24 h) × 100/F(t = 0 h)],[2],12%
"CNCCCC(=O)N(c1nc2ccc(-c3ccc(NC(=O)[C@H](C)c4ccc(F)cc4)cc3)cn2n1)c1ccc(S(C)(=O)=O)cc1OC.Cl [Example 4.1.1, N-[6-(4-{[(2R)-2-(4-fluorophenyl)propanoyl]amino}phenyl)[1,2,4]triazolo[1,5-α]pyridin-2-yl]-N-[2-methoxy-4-(methylsulfonyl)phenyl]-4-(methylamino)butanamide hydrochloride]",% Test Compound after 24 h [F(t = 24 h) × 100/F(t = 0 h)],[1],21%
same,% Test Compound after 4 h [F(t = 24 h) × 100/F(t = 0 h)],[2],32%
"C[C@@H](C(=O)Nc1ccc(-c2ccc3nc(N(C(=O)OCOC(=O)[C@@H](N)C(C)(C)C)c4ccc(S(C)(=O)=O)cc4OCC(F)(F)F)nn3c2)cc1)c1ccc(F)cc1.Cl [Example 6.1, ({[6-(4-{[(2R)-2-(4-fluorophenyl)propanoyl]amino}phenyl)[1,2,4]triazolo[1,5-α]pyridin-2-yl][4-(methylsulfonyl)-2-(2,2,2-trifluoroethoxy)phenyl]carbamoyl}oxy)methyl 3-methyl-L-valinate hydrochloride]",% Test Compound after 24 h [F(t = 24 h) × 100/F(t = 0 h)],[1],0.0%
same,% Test Compound after 4 h [F(t = 24 h) × 100/F(t = 0 h)],[2],4%
